A short description of the test: Inhibition of human Src expressed in rat fibroblasts assessed as anchorage independent growth after 3 days.

Regarding `COc1cc(Nc2c(C#N)cnc3cc(-c4ncccc4CN4CCOCC4)ccc23)c(Cl)cc1Cl` [4-(2,4-dichloro-5-methoxyphenylamino)-7-(3-(morpholinomethyl)pyridin-2-yl)quinoline-3-carbonitrile], the IC50 was over 10 µM.

The values above are taken from BindingDB's records for doi:10.1016/j.bmcl.2009.07.043 (Wyeth Research, 2009).
